In patent US8299097B2, “Methods for treating inflammatory disorders” (The Brigham and Women's Hospital, Inc., priority 2008, dated 2012):

Key:
[1] = test system: BALB/c mice; experiment: Cys-LT amplification of pulmonary inflammation in OVA sensitized, low-dose OVA challenged BALB/c mice; format: in vivo, mouse; conditions: intranasal cys-LT 12 h before each 0.1% OVA challenge
Experimental: FIG. 3. LTE4-mediated amplification of allergen-induced pulmonary inflammation. 3A. BAL fluid total cell counts (top) with percentages (middle) and total numbers (bottom) of eosinophils. Mice were sensitized twice with alum-precipitated ovalbumin (OVA). […] A separate sensitized group of mice were treated with 1% OVA as a positive control. 3B. Quantitative analysis if pulmonary inflammation, measured as the number of bronchovascular bundles with cellular infiltrates per 15 such bundles per mouse. 3C. Representative fields of H & E-stained lungs from mice from the indicated experimental groups. 3D. Morphometric analysis of goblet cell metaplasia, measured as the numbers of PAS-positive cells per mm of bronchial basal lamina. 3E. Representative PAS stains showing goblet cells (arrows). Results in 3A, 3B, and 3D are mean±SEM from 8-9 mice per group.
Thus, it was sought to determine whether either cys-LT amplified pulmonary inflammation induced by the inhalation of low-dose allergen in sensitized mice. Two weeks after sensitization with chicken egg ovalbumin (OVA) by intraperitoneal injection, BALB/c mice received inhalation challenges on three consecutive days with low-dose OVA (0.1%) for 30 minutes. Twelve hours before each challenge, the mice received intranasal LTD4, LTE4, or a buffer control. A cohort of mice treated with 1% OVA were maintained as a positive control. The mice were then euthanized, their BAL fluid collected, and their lungs examined histologically for evidence of inflammation and goblet cell metaplasia, a dominant pathologic signature of Th2-polarized mucosal inflammation. […] The extent of the cellularity and goblet cell responses of the LTE4-treated animals approached the levels of these parameters in the mice treated with 1% OVA.
Male BALB/c mice (6-8 weeks old) received intraperitoneal injections of reagent-grade chicken egg ovalbumin (OVA) (10 μg) precipitated with aluminum hydroxide ([…]) on days 0 and 7. […] Twelve hours after each dose, the mice were exposed to an aerosol of 0.1% OVA for 30 min delivered by an ultrasonic nebulizer. […] The mice were euthanized 24 hours after their third and final aerosol challenge. In some experiments, the mice received clopidogrel (500 μg/ml) in drinking water for 3 days before receiving the first intranasal dose of LTs. The treatment was continued throughout the procedure.
15 bronchovascular bundles of each mouse were evaluated.

[2] = test system: CHO cells expressing CysLT1R, CysLT2R, or P2Y12 receptors; experiment: Calcium flux in Fura-2-AM-loaded CHO transfectants; format: cell-based, human; conditions: LTE4 500 nM, ADP 100 μM; ADP response reflects endogenous P2Y receptors
[3] = molecular target: P2Y12 receptors (Mus musculus, UniProt Q9CPV9); experiment: Clopidogrel effect on LTE4-mediated amplification of OVA-induced pulmonary inflammation; format: in vivo; set-up: from tissue; host or cells: whole animal: BALB/c (OVA model) and C57BL/6 (Der f model) mice; conditions: whole lung RNA 24 h after last OVA challenge
Chain of P2Y12 receptors (Q9CPV9 whole entry): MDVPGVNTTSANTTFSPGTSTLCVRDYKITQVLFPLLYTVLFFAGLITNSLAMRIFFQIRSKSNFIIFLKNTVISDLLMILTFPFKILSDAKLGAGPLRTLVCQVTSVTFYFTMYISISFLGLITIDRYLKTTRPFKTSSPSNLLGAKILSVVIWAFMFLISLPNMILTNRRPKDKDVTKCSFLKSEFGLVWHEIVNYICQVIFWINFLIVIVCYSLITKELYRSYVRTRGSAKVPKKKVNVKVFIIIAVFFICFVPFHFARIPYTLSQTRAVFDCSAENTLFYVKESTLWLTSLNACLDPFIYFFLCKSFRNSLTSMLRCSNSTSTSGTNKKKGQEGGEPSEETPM
Experimental: FIG. 4. […] 4A. […] Clopidogrel (500 μg/ml) was added to the drinking water of the indicated groups of mice for 72 h before the first intranasal dose of LTs, and was maintained throughout the treatment. Results are mean±SEM from at least 9 mice in each group. The experiments were repeated three times with similar results. 4B. PAS stains (left column) from representative mice in the indicated groups showing the effect of clopidigrel on goblet cell metaplasia. Higher magnification images of H & E stains (right) from the same animals showing cellular characteristics of the bronchovascular infiltrates. 4C. Effect of clopidogrel administration on the steady-state expression of IL-13 and MUC5AC mRNA as determined by real-time PCR of whole lung RNA extracted 24 h after the last OVA challenge of the indicated groups. Data are mean±SEM from 4-5 mice/group from a single experiment. Results in a second experiment were similar 4D-4F. […] 4D. Total cell numbers (top), percentages of eosinophils (middle), and total numbers of eosinophils in BAL fluid recovered 24 h after the last challenge with OVA. 4E. Goblet cell metaplasia (top) and representative PAS stains (bottom) from wild-type and p2ry12^−/− mice subjected to the same protocol. 4E. Inflammation scores from the same mice. Data in 4D-4F are from 4 mice per group. Results in a second experiment were similar 4G. BALB/c Cysltr1/Cysltr2^−/− mice and age-matched WT controls were subjected to the same protocol as the p2ry12^−/− mice. Total cell numbers (top), percentages of eosinophils (middle), and total numbers of eosinophils in BAL fluid recovered 24 h after the last challenge with OVA. Results are from 6 mice per group. Three experiments were performed with similar results. 4H. Goblet cell numbers (top) and representative PAS stains (bottom). 4I. Quantitative assessment of bronchovascular inflammation as determined by H & E stains. Results are from 6 mice/group.
FIG. 5. Effect of clopidogrel on LTE4-mediated amplification of pulmonary inflammation. 5A. […] The indicated mice were treated with clopidogrel for 72 h before the first dose of leukotriene. Results are mean±SEM from a minimum of 9 mice in each group. 5B. PAS stains (left column) from representative mice in the indicated groups showing the effect of clopidigrel on goblet cell metaplasia. Higher magnification images of H & E stains (right) from the same animals showing cellular characteristics of the bronchovascular infiltrates. 5C. Effect of clopidogrel administration on the steady-state expression of IL-13 and MUC5AC mRNA as determined by real-time PCR of whole lung RNA extracted 24 h after the last OVA challenge of the indicated groups. Data are mean±SEM from 4-5 mice/group. […]

CCCCC/C=C\C\C=C/C=C/C=C/[C@@H](SC[C@H](N)C(=O)NCC(=O)O)[C@@H](O)CCCC(=O)O [LTD4]
BAL fluid eosinophilia [1]: did not increase
bronchovascular inflammation [1]: tended to slightly potentiate
goblet cell metaplasia [1]: tended to slightly potentiate

CCCCC/C=C\C\C=C/C=C/C=C/[C@@H](SC[C@H](N)C(=O)O)[C@@H](O)CCCC(=O)O [LTE4]
calcium flux [2]: failed to flux calcium
BAL fluid eosinophilia [1]: significantly enhanced
bronchovascular inflammation [1]: significantly enhanced
goblet cell metaplasia [1]: significantly enhanced
lung expression of IL-13 and MUC5AC mRNA (real-time PCR) [3]: tended to increase the expression of both transcripts
